Data as given in US20250206724A1, “SUBSTITUTED 3-AMINO INDAZOLE DERIVATIVES AS KINASE INHIBITORS” (NERVIANO MEDICAL SCIENCES S.R.L., priority 2022, published 2025).
Structures can show the parent of a compound that is named as a salt.

What follows are compounds tested against T1, CDK11A (Homo sapiens, UniProt Q9UQ88). Details: displacement of SNS-032-Atto590 probe (0.002 μM) from CDK11A-p58 (0.032 uM), fluorescence polarization.
T1 sequence (Q9UQ88 346-783): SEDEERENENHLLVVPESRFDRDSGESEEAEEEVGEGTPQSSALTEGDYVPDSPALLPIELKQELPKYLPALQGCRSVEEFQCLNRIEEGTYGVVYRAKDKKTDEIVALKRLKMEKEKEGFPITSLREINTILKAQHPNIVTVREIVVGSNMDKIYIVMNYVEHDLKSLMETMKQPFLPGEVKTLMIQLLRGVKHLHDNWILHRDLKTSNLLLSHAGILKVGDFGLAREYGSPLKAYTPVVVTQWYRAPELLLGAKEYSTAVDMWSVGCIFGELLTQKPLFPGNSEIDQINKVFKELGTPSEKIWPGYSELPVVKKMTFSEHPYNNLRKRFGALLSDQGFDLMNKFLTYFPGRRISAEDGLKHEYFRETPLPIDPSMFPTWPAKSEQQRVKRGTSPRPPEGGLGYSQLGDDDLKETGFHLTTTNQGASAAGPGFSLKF
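Further: compound preincubated 30 min with CDK11A-p58, then probe added and polarization (mP) read 15 min later, 0% displacement is probe plus enzyme, 100% is probe alone.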

SMILES	DC50
CN1CCC(C(=O)Nc2n[nH]c3ccc(-c4ccc(N)cc4)cc23)CC1 [cpd 90, N-[5-(4-Aminophenyl)-1H-indazol-3-yl]-1-methylpiperidine-4-carboxamide dihydrochloride]	592 nM
CN1CCC(C(=O)Nc2n[nH]c3ccc(-c4cc([N+](=O)[O-])ccc4Cl)cc23)CC1 [compound 137, N-[5-(2-Chloro-5-nitrophenyl)-1H-indazol-3-yl]-1-methylpiperidine-4-carboxamide trifluoroacetate]	70 nM
COc1ccc(Cl)c(-c2ccc3[nH]nc(NC(=O)C4CCCNC4)c3c2)c1 (centres unmarked) [cpd 17, N-[5-(2-Chloro-5-methoxyphenyl)-1H-indazol-3-yl]piperidine-3-carboxamide hydrochloride]	52 nM
CCCCN1CCC(C(=O)Nc2n[nH]c3ccc(-c4c(Cl)cccc4Cl)cc23)CC1 [cpd 69, 1-Butyl-N-[5-(2,6-dichlorophenyl)-1H-indazol-3-yl]piperidine-4-carboxamide]	122 nM
COC(=O)c1ccc(C#N)c(-c2ccc3[nH]nc(NC(=O)[C@@H]4CCCNC4)c3c2)c1 [cpd 40, Methyl 4-cyano-3-(3-{[(3R)-piperidin-3-ylcarbonyl]amino}-1H-indazol-5-yl)benzoate hydrochloride]	45 nM
CN1CCC(C(=O)Nc2n[nH]c3ccc(-c4ccccc4C#N)cc23)CC1 [cpd 79, N-[5-(2-Cyanophenyl)-1H-indazol-3-yl]-1-methylpiperidine-4-carboxamide p-toluensulfonate]	277 nM
Nc1cccc(-c2ccc3[nH]nc(NC(=O)C4CCCNC4)c3c2)c1F (centres unmarked) [cpd 11, N-[5-(3-Amino-2-fluorophenyl)-1H-indazol-3-yl]piperidine-3-carboxamide hydrochloride]	183 nM
CC(C)C(OC(=O)N1CCC[C@@H](C(=O)Nc2n[nH]c3ccc(-c4cc(C#N)ccc4Cl)cc23)C1)OC(=O)C(C)(C)C (stereo partly drawn) [compound 197, 1-[(2,2-Dimethylpropanoyl)oxy]-2-methylpropyl (3R)-3-{[5-(2-chloro-5-cyanophenyl)-1H-indazol-3-yl]carbamoyl}piperidine-1-carboxylate]	900 nM
Cc1ccc(-c2ccc3[nH]nc(NC(=O)C4CCN(C)CC4)c3c2)c(F)c1 [cpd 119, N-[5-(2-Fluoro-4-methylphenyl)-1H-indazol-3-yl]-1-methylpiperidine-4-carboxamide hydrochloride]	665 nM
O=C(Nc1n[nH]c2ccc(-c3c(F)cccc3Cl)cc12)[C@H]1CCCNC1 [compound 173, (3S)-N-[5-(2-Chloro-6-fluorophenyl)-1H-indazol-3-yl]piperidine-3-carboxamide hydrochloride]	391 nM
COC(=O)c1cc(-c2ccc3[nH]nc(NC(=O)[C@@H]4CCCNC4)c3c2)c(Cl)cc1Cl [cpd 42, Methyl 2,4-dichloro-5-(3-{[(3R)-piperidin-3-ylcarbonyl]amino}-1H-indazol-5-yl)benzoate hydrochloride]	57 nM
CCCCOc1ccc2[nH]nc(NC(=O)[C@@H]3CCCNC3)c2c1 [cpd 231, (3R)-N-(5-Butoxy-1H-indazol-3-yl)piperidine-3-carboxamide hydrochloride]	71 nM
O=C(Nc1n[nH]c2ccc(-c3cc(F)ccc3C(F)(F)F)cc12)[C@@H]1CCCNC1 [cpd 46, (3R)-N-{5-[5-Fluoro-2-(trifluoromethyl)phenyl]-1H-indazol-3-yl}piperidine-3-carboxamide hydrochloride]	37 nM
CN1CCC(C(=O)Nc2n[nH]c3ccc(-c4cc(F)ccc4C#N)cc23)CC1 [compound 136, N-[5-(2-Cyano-5-fluorophenyl)-1H-indazol-3-yl]-1-methylpiperidine-4-carboxamide hydrochloride]	486 nM
NC(=O)c1ccc(Cl)c(-c2ccc3[nH]nc(NC(=O)C4CCCNC4)c3c2)c1 (centres unmarked) [cpd 9, N-[5-(5-Carbamoyl-2-chlorophenyl)-1H-indazol-3-yl]piperidine-3-carboxamide hydrochloride]	131 nM
O=C(Nc1n[nH]c2ccc(-c3ccc(O)cc3Cl)cc12)[C@@H]1CCCNC1 [cpd 6, (3R)-N-[5-(2-chloro-4-hydroxyphenyl)-1H-indazol-3-yl]piperidine-3-carboxamide hydrochloride]	23 nM
CN1CCC(C(=O)Nc2n[nH]c3ccc(-c4cc(C#N)ccc4Cl)cc23)CC1 [cpd 116, N-[5-(2-Chloro-5-cyanophenyl)-1H-indazol-3-yl]-1-methylpiperidine-4-carboxamide trifluoroacetate]	63 nM
CC(C)(C)C(=O)OCOC(=O)N1CCC[C@@H](C(=O)Nc2n[nH]c3ccc(-c4cc(C#N)ccc4Cl)cc23)C1 [compound 193, [(2,2-Dimethylpropanoyl)oxy]methyl (3R)-3-{[5-(2-chloro-5-cyanophenyl)-1H-indazol-3-yl]carbamoyl}-piperidine-1-carboxylate]	340 nM
CN(C)C1CC(C(=O)Nc2n[nH]c3ccc(-c4cc(C#N)ccc4Cl)cc23)C1 (centres unmarked) [compound 147, N-[5-(2-Chloro-5-cyanophenyl)-1H-indazol-3-yl]-3-(dimethylamino)cyclobutanecarboxamide hydrochloride]	108 nM

The next lines start with the values.

DC50	SMILES
528 nM	CC(C)(C)COC(=O)n1nc(NC(=O)[C@@H]2CCC(C)(C)NC2)c2cc(-c3cc(C#N)ccc3Cl)ccc21 (single isomer, unassigned) [cpd 224, 2,2-Dimethylpropyl 5-(2-chloro-5-cyanophenyl)-3-({[(3+)-6,6-dimethylpiperidin-3-yl]carbonyl}amino)-1H-indazole-1-carboxylate hydrochloride]
89 nM	COc1ccc(F)c(-c2ccc3[nH]nc(NC(=O)[C@@H]4CCCNC4)c3c2)c1 [cpd 20, (3R)-N-[5-(2-Fluoro-5-methoxyphenyl)-1H-indazol-3-yl]piperidine-3-carboxamide hydrochloride]
87 nM	O=C(Nc1n[nH]c2ccc(-c3ccc(Cl)cc3Cl)cc12)[C@@H]1CCCNC1 [cpd 14, (3R)-N-[5-(2,4-Dichlorophenyl)-1H-indazol-3-yl]piperidine-3-carboxamide hydrochloride]
50 nM	O=C(Nc1n[nH]c2ccc(-c3cc(Cl)ccc3Cl)cc12)C1CCCNC1 (centres unmarked) [cpd 4, N-[5-(2,5-Dichlorophenyl)-1H-indazol-3-yl]piperidine-3-carboxamide hydrochloride]
18 nM	Nc1ccc(-c2ccc3[nH]nc(NC(=O)[C@@H]4CCCNC4)c3c2)c(Cl)c1 [cpd 5, (3R)-N-[5-(4-Amino-2-chlorophenyl)-1H-indazol-3-yl]piperidine-3-carboxamide dihydrochloride]
140 nM	N#Cc1ccc(Cl)c(-c2ccc3[nH]nc(NC(=O)[C@H]4CNCCO4)c3c2)c1 [compound 182, (2R)-N-[5-(2-Chloro-5-cyanophenyl)-1H-indazol-3-yl]morpholine-2-carboxamide hydrochloride]
164 nM	COC(=O)c1cc(-c2ccc3[nH]nc(NC(=O)[C@@H]4CCCNC4)c3c2)c(F)cc1F [cpd 50, Methyl 2,4-difluoro-5-(3-{[(3R)-piperidin-3-ylcarbonyl]amino}-1H-indazol-5-yl)benzoate hydrochloride]
33 nM	O=C(Nc1n[nH]c2ccc(-c3cc(O)ccc3Cl)cc12)[C@@H]1CCCNC1 [cpd 41, (3R)-N-[5-(2-Chloro-5-hydroxyphenyl)-1H-indazol-3-yl]piperidine-3-carboxamide hydrochloride]
216 nM	CN1CCC(C(=O)Nc2n[nH]c3ccc(-c4cc(Cl)ccc4Cl)cc23)CC1 [cpd 80, N-[5-(2,5-Dichlorophenyl)-1H-indazol-3-yl]-1-methylpiperidine-4-carboxamide hydrochloride]
130 nM	O=C(Nc1n[nH]c2ccc(-c3cc(Cl)ccc3C(F)(F)F)cc12)C1CCCNC1 (centres unmarked) [cpd 15, N-{5-[5-Chloro-2-(trifluoromethyl)phenyl]-1H-indazol-3-yl}piperidine-3-carboxamide trifluoroacetate]
28 nM	C[C@@H]1CC[C@@H](C(=O)Nc2n[nH]c3ccc(-c4c(Cl)cccc4Cl)cc23)CN1 [compound 178, (3R,6R)-N-[5-(2,6-Dichlorophenyl)-1H-indazol-3-yl]-6-methylpiperidine-3-carboxamide trifluoroacetate]
16 nM	CC(=O)c1ccc(Cl)c(-c2ccc3[nH]nc(NC(=O)[C@@H]4CCNC4)c3c2)c1 [cpd 38, (3R)-N-[5-(5-Acetyl-2-chlorophenyl)-1H-indazol-3-yl]pyrrolidine-3-carboxamide hydrochloride]
619 nM	COc1cc(F)c(-c2ccc3[nH]nc(NC(=O)C4CCN(C)CC4)c3c2)c(F)c1 [cpd 120, N-[5-(2,6-Difluoro-4-methoxyphenyl)-1H-indazol-3-yl]-1-methylpiperidine-4-carboxamide hydrochloride]
54 nM	C[C@H]1CC[C@@H](C(=O)Nc2n[nH]c3ccc(-c4c(Cl)cccc4Cl)cc23)CN1 [compound 177, (3R,6S)-N-[5-(2,6-Dichlorophenyl)-1H-indazol-3-yl]-6-methylpiperidine-3-carboxamide trifluoroacetate]
153 nM	CN1CCC(C(=O)Nc2n[nH]c3ccc(-c4cc(C(N)=O)ccc4Cl)cc23)CC1 [cpd 117, N-[5-(5-Carbamoyl-2-chlorophenyl)-1H-indazol-3-yl]-1-methylpiperidine-4-carboxamide trifluoroacetate]
48 nM	CNC1CC(C(=O)Nc2n[nH]c3ccc(-c4ccc(O)cc4Cl)cc23)C1 (centres unmarked) [cpd 63, N-[5-(2-Chloro-4-hydroxyphenyl)-1H-indazol-3-yl]-3-(methylamino)cyclobutanecarboxamide hydrochloride]
